The conditions of data set [1]: proline-rich literature peptides; cited from earlier work. From the text: The main reason was the structural characteri ...
The subject of data set [2] is ACE. To be noted: literature peptides; ref 13 (GYGYNY), 20 (SSYYPFK), 34 (NMAINPSKENLCSTFCK); read-out: IC50 of ACE-inhibitory activity; cited from earlier work. From the text:
Obviously, SAPPP was a pentapeptide of high content of Pro. […] Some special acid residues including aromatic amino acids (Phe, Trp and Tyr) and Pro in the C-terminal tripeptides can tightly bind with active sites of ACE and show ... || Peptides can bind to the key binding pockets of ACE (S1, S1′, and S2′), and disturb the combination of ACE and the […] (angiotensin-I or bradykinin), thereby showing a competitive inhibition pattern. […] Moreover, the docking T-Score of SAPPP (8.88) was higher than the required value (6.0).

Data set [3] concerns ACE. As to the kind of experiment: Stability against simulated gastrointestinal digestion, read out as ACE-inhibitory activity. Type of data set: in vitro ADME. The settings on record: peptide 1 mg/mL; pepsin pH 2.0 37 °C 90 min, then trypsin/bile salt pH 6.8 37 °C 180 min; activity before versus after digestion; p > 0.05. The procedure:
As per the same procedure described by Jimsheena and Gowda, inhibition activity on ACE was evaluated by comparing the quantity of produced hippuric acid before and after the addition of the peptides. IC50 value was calculated from the regression equation of ACE inhibition percentage versus different concentrations of the sample, and defined as the concentration of sample when ACE-inhibitory activity was 50%.
Following the method of Sun et al., mixtures of trypsin (0.45 g), pig bile salt (3 g) and NaHCO3 (6.25 g) dissolved in 100 mL of dH2O (pH 6.8) were used to simulate intestinal fluid, whereas pepsin (40 mg) and NaCl (0.877 g) dissolved in 100 mL of dH2O (pH 2.0) were used as gastric fluid. Peptide solutions (dissolved in ultrapure water, 1 mg/mL) were incubated at 37 °C in a stirring bath (140 r/min) for 15 min; then, the simulated gastric fluid was added (gastric fluid: peptide solution = 1:10 v/v) and incubated at 37 °C (140 r/min) for 90 min. Then, the reaction solution was adjusted to pH 6.8 with Na2HPO4. The simulated intestinal fluid (the fluid: peptide solution = 1:10, v/v) was added and stirred (140 r/min) at 37 °C for 180 min. All the reaction solutions were heated at 100 °C for 8 min to inactivate the enzyme. Stability was calculated by comparing the ACE-inhibitory activities of the peptides before and after the digestion.

“Also recorded” adds a separate entry of the source. Ends that are not written are not given here.

As for “ELHPQ [proline-rich peptide identified in canary seed]”, in data set [1], the “Stability against gastrointestinal digestion” value was “excellent stability”.
Turning to GYGYNY, the IC50 in data set [2] was 384 µM.
For “KPVPR [proline-rich peptide identified in canary seed]”, in data set [1], the “Stability against gastrointestinal digestion” value is on record as “excellent stability”.
Regarding “LHPQ [proline-rich peptide identified in canary seed]”, the “Stability against gastrointestinal digestion” value in data set [1] is “excellent stability”.
Turning to NMAINPSKENLCSTFCK, the IC50 in data set [2] was 129 µM.
SAPPP [SAPPP, Ser-Ala-Pro-Pro-Pro]: the “Stability of ACE-inhibitory activity during simulated gastrointestinal digestion” value in data set [3] is recorded as “resistant; also recorded: relatively stable”.
For SSYYPFK, in data set [1], the “Stability against gastrointestinal digestion” value is “excellent stability”. For the same substance, the IC50 in data set [2] is 91.8 µM.

Broadly, the IC50 is the concentration needed to halve the response being measured.

Values taken from paper PMC9227351, “A Novel Antihypertensive Pentapeptide Identified in Quinoa Bran Globulin Hydrolysates: Purification, In Silico Characterization, Molecular Docking with ACE and Stability against Different Food-Processing Conditions” (Nutrients, 2022).
